# According to patent publication US9492468B2, “Methods and compositions for treatment of acute heart failure” (PERICOR THERAPEUTICS, INC., priority 2008, dated 2016):
# Columns and labels:
# [1] = Octanol:water partition coefficient; assay type: physicochemical; conditions: read-out: Octanol: water partition coefficient (log P)
# Description: Administering a better absorbed more lipophilic prodrug, which is subsequently hydrolysed to GP531, achieves an increase in the systemic availability of GP531.
# Troponin-I = experiment: Plasma troponin-I, 6 hours infusion study; assay type: in vivo, dog; conditions: HF dogs n=6; for Plasma TnI: iv 10 μg/kg/min constant infusion
# Description: (§1) Six heart failure dogs described in Example 1 were used. Studies using active drug and placebo were performed in each dog in random order a minimum of one week apart. After baseline hemodynamic, angiographic and echocardiographic measurements, GP-531 tartrate or placebo was administered as a continuous constant intravenous infusion for 6 hours. The dose of GP-531 tartrate was 10 μg/kg/min. Complete hemodynamic, angiographic and echocardiographic measurements were made during baseline, and at 1, 2, 3, 4, 5 and 6 hours after initiating drug infusion. In addition, myocardial oxygen consumption (MVO2) was measured at baseline and 4 and 6 hours after initiating drug or saline infusion. LV pressure-volume relationships (P-V Loops) were also measured at baseline and at 6 hours after initiating drug or saline infusion to assess load independent contractility and relaxation. Venous blood samples were obtained at baseline and hourly thereafter. Blood samples (at least […]) were centrifuged at 3000 rpm for 10 minutes and plasma withdrawn and placed in cryostorage tubes and stored upright at −20° C. until needed. Venous blood samples were used to evaluate plasma levels of troponin-I and plasma levels of n-terminal pro-brain natriuretic peptide (NT-proBNP).
# (§2) Plasma biomarkers were measured in all dogs at all study time points. Troponin I (TnI) was determined in plasma based on the principle of the double antibody sandwich enzyme-linked immunosorbent assay (ELISA) (Hirano, T., et al, Immunol Today 1990, 11:443-449) and NT-pro-BNP based on competitive ELISA (Bonow, R. O. Circulation 1996, 93:1946-1950). Both biomarkers were assayed using commercially available assay kits. Kits for NT-proBNP and TnI were purchased from ALPCO Diagnostics, Salem, N.H. Using standard curves and software, the concentration of each biomarker was expressed as ng/ml for TnI and fmol/ml for NT-proBNP.
# A3 receptors = target: T1, A3 receptors (Homo sapiens, UniProt P0DMS8); experiment: Ligand status at adenosine A3 receptor; assay type: binding
# T1 sequence (P0DMS8 1-318): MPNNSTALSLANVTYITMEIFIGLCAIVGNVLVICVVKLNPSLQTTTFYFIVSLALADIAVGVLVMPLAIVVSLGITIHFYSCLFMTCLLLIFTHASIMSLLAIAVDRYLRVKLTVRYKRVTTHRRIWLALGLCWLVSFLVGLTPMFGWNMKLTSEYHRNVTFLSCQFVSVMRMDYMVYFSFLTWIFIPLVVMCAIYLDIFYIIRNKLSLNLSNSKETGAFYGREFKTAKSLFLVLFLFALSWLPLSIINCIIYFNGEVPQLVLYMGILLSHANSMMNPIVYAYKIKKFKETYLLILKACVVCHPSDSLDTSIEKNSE
# NT-ProBNP = experiment: Plasma NT-proBNP, 6 hours infusion study; assay type: in vivo, dog; conditions: HF dogs n=6; for Plasma NT-ProBNP: iv 10 μg/kg/min constant infusion
# Description: as §1, §2
# [2] = in man; cited from earlier work
# [3] = previous studies; cited from earlier work
# A2 receptors = experiment: Ligand status at adenosine A2 receptor; assay type: binding
# [4] = target: T2, NBTI-sensitive adenosine transporter (Homo sapiens, UniProt Q99808); experiment: Ligand status at adenosine transporter; assay type: binding
# T2 sequence (Q99808 1-456): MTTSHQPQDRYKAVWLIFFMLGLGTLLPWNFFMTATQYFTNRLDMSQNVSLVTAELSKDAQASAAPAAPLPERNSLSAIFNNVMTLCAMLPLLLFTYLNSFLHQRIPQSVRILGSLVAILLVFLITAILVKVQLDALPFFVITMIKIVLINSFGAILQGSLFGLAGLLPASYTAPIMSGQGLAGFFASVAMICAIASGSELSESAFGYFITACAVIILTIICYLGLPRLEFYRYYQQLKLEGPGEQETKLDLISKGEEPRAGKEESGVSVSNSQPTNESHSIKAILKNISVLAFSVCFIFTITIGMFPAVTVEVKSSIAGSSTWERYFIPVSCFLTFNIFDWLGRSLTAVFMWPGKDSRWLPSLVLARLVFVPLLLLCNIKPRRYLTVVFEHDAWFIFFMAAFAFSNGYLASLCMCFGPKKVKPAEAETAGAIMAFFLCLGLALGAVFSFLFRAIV
compound,measurement,setting,value
"NC(=O)c1ncn(C2OC(CNCc3ccccc3)C(O)C2O)c1N [GP-531, 5-amino-1-β-D-(5-benzylamino-5-deoxy-1-β-D-ribofuranosyl)imidazole-4 carboxamide]",logP,[1],-0.91
same,Plasma TnI,Troponin-I; 1 h,0.57 ± 0.02 pg/mL
same,Plasma TnI,Troponin-I; 2 h,0.58 ± 0.02 pg/mL
same,Plasma TnI,Troponin-I; 3 h,0.38 ± 0.03 pg/mL
same,Plasma TnI,Troponin-I; 4 h,0.43 ± 0.03 pg/mL
same,Plasma TnI,Troponin-I; 5 h,0.41 ± 0.03 pg/mL
same,Plasma TnI,Troponin-I; 6 h,0.42 ± 0.06 pg/mL
same,Effect on plasma troponin-I,Troponin-I; iv 10 μg/kg/min for 6 h,significantly reduced
same,Ligand for A3 receptors,A3 receptors,has not been shown to be a ligand
same,Plasma NT-ProBNP,NT-ProBNP; 1 h,140 ± 13 fmol/mL
same,Plasma NT-ProBNP,NT-ProBNP; 2 h,131 ± 11 fmol/mL
same,Plasma NT-ProBNP,NT-ProBNP; 3 h,127 ± 12 fmol/mL
same,Plasma NT-ProBNP,NT-ProBNP; 4 h,134 ± 11 fmol/mL
same,Plasma NT-ProBNP,NT-ProBNP; 5 h,130 ± 10 fmol/mL
same,Plasma NT-ProBNP,NT-ProBNP; 6 h,122 ± 10 fmol/mL
same,Effect on plasma NT-proBNP,NT-ProBNP; iv 10 μg/kg/min for 6 h,significantly reduced
same,Oral bioavailability,[2],~10%
same,Metabolism,[3],not metabolized
same,Route of clearance,[3],cleared almost entirely intact in urine
same,Ligand for A2 receptors,A2 receptors,has not been shown to be a ligand
same,Ligand for NBTI-sensitive adenosine transporter,[4],has not been shown to be a ligand
